Entries after “also recorded” stand apart in the source; their conditions may differ.
Test system: rifampicin-resistant strain of B. glumae
Assay: Antimicrobial assay in planta: rice panicles pre-treated with compound, then spray-inoculated with B. glumae (BPB symptoms, bacterial populations)
Assay type: in vivo, Burkholderia glumae
Settings: pre-treated with 500 μg/mL; 3 dpi; vs water pre-treated inoculated panicles; FIG. 4B

Compound | reduction of B. glumae populations in rice panicles
O=C(c1cc(Cl)c(Cl)[nH]1)c1c(O)cccc1O [pyoluteorin] | 1.5 logs
pyoverdine | No changes in B. glumae populations
CC(=O)c1c(O)cc(O)c(C(C)=O)c1O [2,4-DAPG, 2,4-diacetylphloroglucinol] | 1.17 logs
CN1[C@@H]([C@H]2CSC(c3ccccc3O)=N2)SC[C@H]1C(=O)O [pyochelin] | No changes in B. glumae populations

Same assay, conditions: rice Kitaake panicles pre-treated with 500 μg/mL; 3 dpi; water pre-treated, inoculated panicles exhibited the highest levels of BPB symptoms; FIG. 4A

Compound | BPB symptoms in rice panicles (in words)
O=C(c1cc(Cl)c(Cl)[nH]1)c1c(O)cccc1O [pyoluteorin] | showed reduction of symptoms
CC(=O)c1c(O)cc(O)c(C(C)=O)c1O [2,4-DAPG, 2,4-diacetylphloroglucinol] | showed reduction of symptoms
CN1[C@@H]([C@H]2CSC(c3ccccc3O)=N2)SC[C@H]1C(=O)O [pyochelin] | showed reduction of symptoms

Test system: Burkholderia glumae
Assay: Antimicrobial assay in vitro: growth of B. glumae in KB broth (OD600 after 18 hours)
Settings: 2,4-DAPG at 100 μg/mL alone or with pyoluteorin at 10 μg/mL; 18 hours; FIG. 7
Procedure: A single colony of P. protegens PBL3 was grown in 1×M9 minimal media (Sigma Aldrich, St. Louis, MO) supplemented with filter-sterilized 56 mM Myo-inositol, 2 mM MgSO4·7H2O, and 0.2 mM CaCl2). The culture was incubated at 25° C. with constant agitation (210 rpm) for 60 hours until reaching an optical density at 600 nm (OD600) of 0.5. Bacterial culture was centrifuged at 10,000 rpm for 10 minutes. The bacterial pellet was discarded and the supernatant, containing the secreted fraction (secretome) was transferred to a new tube and filter-sterilized using a 0.22 μm filter (Fisher Scientific, Ireland) to eliminate any residual bacterial suspension.
Orfamide A, orfamide B, pyrrolnitrin, and pyoluteorin (Cayman Chemical Company, Ann Arbor, MI), and pyochelin (Santa Cruz Biotechnology, Dallas, TX), were diluted in 5% dimethyl sulfoxide (DMSO) at 1000 μg/mL and further diluted to 100 μg/mL and 10 μg/mL. Similarly, pyoverdine (Sigma-Aldrich, Saint Louis, MO) was diluted in water, whereas 2,4-DAPG (ThermoFisher Scientific, Poland) and fengycin (Sigma-Aldrich, Saint Louis, MO) were diluted in 5% ethanol at 1000 μg/mL and further diluted to 100 μg/mL and 10 μg/mL.
Burkholderia glumae grown on KB was scraped from the agar and resuspended in sterile water to a final OD600 of 0.2. One hundred microliters of B. glumae was added to 200 μL of KB broth to make a master mix. The master mix was supplemented with either water, 5% DMSO, or 5% ethanol, used as control. Alternatively, master mix was supplemented with either P. protegens PBL3 secretome or different compounds (orfamide A, orfamide B, fengycin, pyrrolnitrin, pyochelin, pyoverdine, 2,4-DAPG, or pyoluteorin), each at three concentrations of 1000 μg/mL, 100 μg/mL, and 10 μg/mL, or combination of compounds. Two compound combinations were chosen, the first combination consisted of 2,4-DAPG and pyoluteorin at final concentrations of 100 μg/mL and 10 μg/mL, respectively. The second combination consisted of 2,4-DAPG and pyoluteorin, each at concentration of 10 μg/mL. […] The growth of B. glumae was evaluated by measuring the OD600 using a spectrophotometer (Genesys 140, Thermoscientific, Madison, WI, USA). Each experiment was replicated three times.

Compound | reduction in B. glumae growth
CC(=O)c1c(O)cc(O)c(C(C)=O)c1O [2,4-DAPG, 2,4-diacetylphloroglucinol] | 45%

Same assay, conditions: at a concentration of 1000 μg/mL

Compound | effect on growth of B. glumae (in words)
O=[N+]([O-])c1c(Cl)cccc1-c1c[nH]cc1Cl [pyrrolnitrin] | inhibits B. glumae
CN1[C@@H]([C@H]2CSC(c3ccccc3O)=N2)SC[C@H]1C(=O)O [pyochelin] | inhibits B. glumae

Same assay, conditions: at the three concentrations 10 μg/mL, 100 μg/mL, 1000 μg/mL

Compound | effect on growth of B. glumae (in words)
O=C(c1cc(Cl)c(Cl)[nH]1)c1c(O)cccc1O [pyoluteorin] | inhibits B. glumae; also recorded: significantly reduced the growth of B. glumae
pyoverdine | inhibits B. glumae
CC(=O)c1c(O)cc(O)c(C(C)=O)c1O [2,4-DAPG, 2,4-diacetylphloroglucinol] | inhibits B. glumae; also recorded: significantly reduced the growth of B. glumae

Same assay, conditions: compound at 100 μg/mL; 18 hours; FIG. 2

Compound | reduction of growth of B. glumae
O=C(c1cc(Cl)c(Cl)[nH]1)c1c(O)cccc1O [pyoluteorin] | 97%
pyoverdine | ~80%

Same assay, conditions: compound at 1000 μg/mL; 18 hours; FIG. 2

Compound | reduction of growth of B. glumae
O=[N+]([O-])c1c(Cl)cccc1-c1c[nH]cc1Cl [pyrrolnitrin] | 25%
O=C(c1cc(Cl)c(Cl)[nH]1)c1c(O)cccc1O [pyoluteorin] | 97%
pyoverdine | ~80%
CC(=O)c1c(O)cc(O)c(C(C)=O)c1O [2,4-DAPG, 2,4-diacetylphloroglucinol] | 93%
CN1[C@@H]([C@H]2CSC(c3ccccc3O)=N2)SC[C@H]1C(=O)O [pyochelin] | 40%

Same assay, conditions: concentrations ranging from 10 μg/mL to 1000 μg/mL; FIG. 2

Compound | growth of B. glumae (in words)
fengycin | did not reduce the growth of B. glumae
orfamide B | did not reduce the growth of B. glumae
Orfamide A | did not reduce the growth of B. glumae

Same assay, conditions: concentrations tested 1000, 100, 10 μg/mL

Compound | minimum inhibitory concentration needed for reduction of B. glumae growth in vitro
O=[N+]([O-])c1c(Cl)cccc1-c1c[nH]cc1Cl [pyrrolnitrin] | 1000 µg/mL
O=C(c1cc(Cl)c(Cl)[nH]1)c1c(O)cccc1O [pyoluteorin] | 100 µg/mL
pyoverdine | 100 µg/mL
CC(=O)c1c(O)cc(O)c(C(C)=O)c1O [2,4-DAPG, 2,4-diacetylphloroglucinol] | 100 µg/mL
CN1[C@@H]([C@H]2CSC(c3ccccc3O)=N2)SC[C@H]1C(=O)O [pyochelin] | 1000 µg/mL

Same assay, conditions: other concentrations than 1000 μg/mL (100 μg/mL, 10 μg/mL); FIG. 2

Compound | effect on growth of B. glumae (in words)
O=[N+]([O-])c1c(Cl)cccc1-c1c[nH]cc1Cl [pyrrolnitrin] | did not have any effect
CN1[C@@H]([C@H]2CSC(c3ccccc3O)=N2)SC[C@H]1C(=O)O [pyochelin] | did not have any effect

— patent US20250374924A1, “ACTIVE MOLECULES IN THE SECRETOME OF PSEUDOMONAS PROTEGENS PBL3” (Board of Regents of the University of Nebraska, priority 2024, published 2025)
